Source: patent US9096608B2, “Pharmaceutically active pyrazolo-triazine derivatives” (LEAD DISCOVERY CENTER GMBH, priority 2012, dated 2015)

Key:
Assay type in all cases: biochemical
[1] = target: T1, CDK7/CycH/Mat1 (Homo sapiens, UniProt P50613); assay: CDK7 Enzymatic Activity Assay (Lance Kinase Activity Assay, FRET); conditions: Table 5A; 25 μM ATP final; read-out: CDK7: IC50 [mM] for CDK7 inhibition (the above defined ranges apply)
T1 construct: purchased Carna
Method: (§1) This protocol describes how the Lance Kinase Activity Assay was performed to determine IC50 values of compounds of general formula (I) against CDK/Cyclin complexes. The principle behind this enzymatic assay is based upon the phosphorylation of the Ulight-Peptide Substrat. It is detected by using a specific EU-labeled anti-phospho peptide antibody.
(§2) Binding of an inhibitor to the kinase prevents phosphorylation of the ULlight-MBP Substrat, resulting in a loss of FRET.
CDK7 Enzymatic Activity Assay
(§3) The compounds of general formula (I) exemplary summarized in Table 1 were diluted from a 10 mM DMSO stock solution 1:10 in a total volume of 15 μl DMSO. This compound predilution was then serial diluted 1:3 over 8 steps in DMSO and briefly spun down. Each compound solution was now diluted 1:20 in Enzymatic Buffer (HEPES: 50 mM, pH: 7.5; MgCl2: 10 mM; EGTA: 1 mM; DTT: 2 mM; Tween-20: 0.01%), mixed thoroughly and spun down.
(§4) For positive controls, 2 μl of DMSO working solution were mixed with 6 μl CDK7/CycH/Mat1/substrate working solution and 2 μl ATP working solution. Positive and negative controls were calculated from at least 8 different wells. The 384 well plates were mixed in a Teleshaker plate mixer (Beckman Coulter, Brea, Calif., USA) at 2000 rpm for 40 sec, and incubated for 1 h at room temperature before addition of 10 μl LANCE Detection Buffer (1×; EDTA: 20 nM; Eu-Anti-P-MBP: 4 nM) per well. Plates were mixed in a Teleshaker plate mixer (Beckman Coulter, Brea, Calif., USA) at 2000 rpm for 40 sec, followed by incubation with Detection Buffer for 1 h, and reading. […] IC50 values were determined from the sigmoidal dose response curves with the software Quattro Workflow (Quattro GmbH, Munich, Germany).

[2] = target: T2, CDK9/Cyclin T1 (Homo sapiens, UniProt P50750); assay: CDK9 Enzymatic Activity Assay (Lance Kinase Activity Assay, FRET); conditions: Table 5B; symbols per IC50 ranges of b615
T2 construct: purchased Invitrogen
Method: as §1, §2
CDK9 Enzymatic Activity Assay
as §3
as §4, with “6 μl CDK9/cyclin T1/substrate working solution” for “6 μl CDK7/CycH/Mat1/substrate working solution”, “rpm for […], followed” for “rpm for 40 sec, followed”

[3] = target: T3, CDK2/CycA (Homo sapiens, UniProt P24941); assay: CDK2 Enzymatic Activity Assay (Lance Kinase Activity Assay, FRET); conditions: Table 5B; symbols per IC50 ranges of b615
T3 construct: purchased Proqinase
Method: as §1, §2
CDK2 Enzymatic Activity Assay
as §3
as §4, with “6 μl CDK2/CycA/substrate working solution” for “6 μl CDK7/CycH/Mat1/substrate working solution”, “Detection Buffer (EDTA: […];” for “Detection Buffer (1×; EDTA: 20 nM;”, “rpm for […], followed” for “rpm for 40 sec, followed”

T2 sequence (P50750 whole entry): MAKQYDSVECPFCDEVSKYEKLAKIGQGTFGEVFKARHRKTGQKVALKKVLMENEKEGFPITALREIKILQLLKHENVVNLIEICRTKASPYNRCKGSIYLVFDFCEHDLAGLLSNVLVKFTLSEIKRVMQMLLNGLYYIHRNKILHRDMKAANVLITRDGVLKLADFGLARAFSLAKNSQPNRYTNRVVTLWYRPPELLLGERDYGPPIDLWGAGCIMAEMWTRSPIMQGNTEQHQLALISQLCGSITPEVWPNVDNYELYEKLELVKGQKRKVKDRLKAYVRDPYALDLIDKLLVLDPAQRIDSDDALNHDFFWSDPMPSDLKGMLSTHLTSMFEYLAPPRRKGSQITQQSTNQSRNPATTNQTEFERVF
T2 sequence (O60563 whole entry partner): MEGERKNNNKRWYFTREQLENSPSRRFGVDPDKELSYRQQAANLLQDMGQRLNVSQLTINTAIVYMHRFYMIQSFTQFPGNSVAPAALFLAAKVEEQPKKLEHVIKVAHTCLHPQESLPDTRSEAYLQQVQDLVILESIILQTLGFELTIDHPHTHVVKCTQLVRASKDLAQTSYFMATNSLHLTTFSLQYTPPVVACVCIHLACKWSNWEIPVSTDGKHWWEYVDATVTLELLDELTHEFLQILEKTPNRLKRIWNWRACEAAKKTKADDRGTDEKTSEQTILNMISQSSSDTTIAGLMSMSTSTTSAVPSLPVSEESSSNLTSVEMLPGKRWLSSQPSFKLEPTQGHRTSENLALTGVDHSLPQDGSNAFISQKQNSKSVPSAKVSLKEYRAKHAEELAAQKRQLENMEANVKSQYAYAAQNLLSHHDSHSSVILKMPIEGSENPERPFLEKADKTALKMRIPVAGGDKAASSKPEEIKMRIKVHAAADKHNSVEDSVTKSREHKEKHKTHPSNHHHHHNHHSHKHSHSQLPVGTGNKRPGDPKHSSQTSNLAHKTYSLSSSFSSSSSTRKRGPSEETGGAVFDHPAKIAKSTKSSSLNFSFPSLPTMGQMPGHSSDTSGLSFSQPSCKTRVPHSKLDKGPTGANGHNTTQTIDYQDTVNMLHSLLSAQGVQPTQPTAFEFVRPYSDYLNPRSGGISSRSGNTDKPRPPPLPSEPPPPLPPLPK
T1 sequence (P50613 whole entry): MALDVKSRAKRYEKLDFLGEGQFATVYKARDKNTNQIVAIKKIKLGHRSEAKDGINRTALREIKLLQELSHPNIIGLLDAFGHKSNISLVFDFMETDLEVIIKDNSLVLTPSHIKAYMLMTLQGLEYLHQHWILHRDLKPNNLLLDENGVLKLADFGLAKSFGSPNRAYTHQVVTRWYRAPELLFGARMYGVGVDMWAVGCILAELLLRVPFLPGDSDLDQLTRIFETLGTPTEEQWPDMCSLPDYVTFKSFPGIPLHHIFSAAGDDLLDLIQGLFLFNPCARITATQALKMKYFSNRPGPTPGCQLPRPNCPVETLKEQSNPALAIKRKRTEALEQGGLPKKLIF
T1 sequence (P51946 whole entry partner): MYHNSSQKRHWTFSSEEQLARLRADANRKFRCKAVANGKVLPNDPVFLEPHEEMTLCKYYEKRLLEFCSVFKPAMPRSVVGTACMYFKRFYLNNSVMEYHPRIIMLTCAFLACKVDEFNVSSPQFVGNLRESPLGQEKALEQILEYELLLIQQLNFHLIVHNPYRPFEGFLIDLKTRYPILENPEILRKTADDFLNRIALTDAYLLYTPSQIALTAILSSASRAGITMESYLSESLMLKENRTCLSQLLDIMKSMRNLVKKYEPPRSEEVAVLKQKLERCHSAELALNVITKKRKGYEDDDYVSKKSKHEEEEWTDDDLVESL
T1 sequence (P51948 whole entry partner): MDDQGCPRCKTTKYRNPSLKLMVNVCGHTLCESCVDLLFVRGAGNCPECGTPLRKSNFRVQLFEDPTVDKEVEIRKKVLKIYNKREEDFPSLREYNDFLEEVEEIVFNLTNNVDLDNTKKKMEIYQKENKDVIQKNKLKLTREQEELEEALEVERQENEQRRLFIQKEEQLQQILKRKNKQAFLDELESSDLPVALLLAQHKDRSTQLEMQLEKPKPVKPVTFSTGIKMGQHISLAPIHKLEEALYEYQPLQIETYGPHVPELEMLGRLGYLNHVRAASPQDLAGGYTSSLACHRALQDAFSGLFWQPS

COc1ccc(C(C)Nc2nc(O[C@@H]3CCCNC3)nc3c(C(C)C)cnn23)cc1 (stereo partly drawn) [(VII-an), 8-isopropyl-N-(1-(4-methoxyphenyl)ethyl)-2-((R)-piperidin-3-yloxy)pyrazolo[1,5-a][1,3,5]triazin-4-amine]
IC50 [1]: > 100 nM | CDK9: Selectivity of CDK7 inhibition over CDK9 inhibition [fold] [2]: +++ (IC50>2500 nM) | CDK2 IC50 range class [3]: +++ (IC50>2500 nM)

CC(C)c1cnn2c(NC(C)c3ccccc3C3CC3)nc(O[C@@H]3CCCNC3)nc12 (stereo partly drawn) [(VII-ao), N-(1-(2-cyclopropyl-phenyl)ethyl)-8-isopropyl-2-((R)-piperidin-3-yloxy)pyrazolo[1,5-a][1,3,5]triazin-4-amine]
IC50 [1]: > 100 nM | CDK9: Selectivity of CDK7 inhibition over CDK9 inhibition [fold] [2]: +++ (IC50>2500 nM) | CDK2 IC50 range class [3]: +++ (IC50>2500 nM)

CC(C)c1cnn2c(NC(C)c3ccccc3N3CCCC3)nc(O[C@@H]3CCCNC3)nc12 (stereo partly drawn) [(VII-ap), 8-isopropyl-2-((R)-piperidin-3-yloxy)-N-(1-(2-(pyrrolidin-1-yl)phenyl)ethyl)pyrazolo[1,5-a][1,3,5]triazin-4-amine]
IC50 [1]: > 100 nM | CDK9: Selectivity of CDK7 inhibition over CDK9 inhibition [fold] [2]: +++ (IC50>2500 nM) | CDK2 IC50 range class [3]: +++ (IC50>2500 nM)

CC(C)c1cnn2c(NC(C)c3ccccc3N3CCCCC3)nc(O[C@@H]3CCCNC3)nc12 (stereo partly drawn) [(VII-aq), 8-isopropyl-N-(1-(2-(piperidin-1-yl)phenyl)ethyl)-2-((R)-piperidin-3-yloxy)pyrazolo[1,5-a][1,3,5]triazin-4-amine]
IC50 [1]: > 100 nM | CDK9: Selectivity of CDK7 inhibition over CDK9 inhibition [fold] [2]: +++ (IC50>2500 nM) | CDK2 IC50 range class [3]: +++ (IC50>2500 nM)

CC(C)c1cnn2c(NC(C)c3ccccc3-c3ccccc3)nc(O[C@@H]3CCCNC3)nc12 (stereo partly drawn) [(VII-as), N-(1-([1,1′-biphenyl]-2-yl)ethyl)-8-isopropyl-2-((R)-piperidin-3-yloxy)pyrazolo[1,5-a][1,3,5]triazin-4-amine]
IC50 [1]: > 100 nM | CDK9: Selectivity of CDK7 inhibition over CDK9 inhibition [fold] [2]: +++ (IC50>2500 nM) | CDK2 IC50 range class [3]: +++ (IC50>2500 nM)

CC(C)c1cnn2c(N[C@@H](C)c3ccccc3OC(F)(F)F)nc(O[C@@H]3CCCNC3)nc12 [(VII-at), 8-isopropyl-2-((R)-piperidin-3-yloxy)-N-((S)-1-(2-(trifluoro-methoxy)phenyl)ethyl)pyrazolo[1,5-a][1,3,5]triazin-4-amine]
IC50 [1]: 30 to 100 nM | CDK9: Selectivity of CDK7 inhibition over CDK9 inhibition [fold] [2]: +++ (IC50>2500 nM) | CDK2 IC50 range class [3]: +++ (IC50>2500 nM)

CC(C)c1cnn2c(N[C@@H](C)c3ccccc3I)nc(O[C@@H]3CCCNC3)nc12 [(VII-au), N-((S)-1-(2-iodophenyl)ethyl)-8-isopropyl-2-((R)-piperidin-3-yloxy)pyrazolo[1,5-a][1,3,5]triazin-4-amine]
IC50 [1]: 10 to 30 nM | CDK9: Selectivity of CDK7 inhibition over CDK9 inhibition [fold] [2]: +++ (IC50>2500 nM) | CDK2 IC50 range class [3]: +++ (IC50>2500 nM)

CCOc1ccccc1[C@H](C)Nc1nc(O[C@@H]2CCCNC2)nc2c(C(C)C)cnn12 [(VII-aw), N-((S)-1-(2-ethoxyphenyl)ethyl)-8-isopropyl-2-((R)-piperidin-3-yloxy)pyrazolo[1,5-a][1,3,5]triazin-4-amine]
IC50 [1]: > 100 nM | CDK9: Selectivity of CDK7 inhibition over CDK9 inhibition [fold] [2]: +++ (IC50>2500 nM) | CDK2 IC50 range class [3]: +++ (IC50>2500 nM)

CC(C)c1cnn2c(N[C@@H](C)c3cccc(OC(F)(F)F)c3)nc(O[C@@H]3CCCNC3)nc12 [(VII-ay), 8-isopropyl-2-((R)-piperidin-3-yloxy)-N-((S)-1-(3-(trifluoro-methoxy)phenyl)ethyl)pyrazolo[1,5-a][1,3,5]triazin-4-amine]
IC50 [1]: 10 to 30 nM | CDK9: Selectivity of CDK7 inhibition over CDK9 inhibition [fold] [2]: +++ (IC50>2500 nM) | CDK2 IC50 range class [3]: +++ (IC50>2500 nM)

COc1cc(F)ccc1[C@H](C)Nc1nc(O[C@@H]2CCCNC2)nc2c(C(C)C)cnn12 [(VII-az), N-((S)-1-(4-fluoro-2-methoxyphenyl)ethyl)-8-isopropyl-2-((R)-piperidin-3-yloxy)pyrazolo[1,5-a][1,3,5]triazin-4-amine]
IC50 [1]: 30 to 100 nM | CDK9: Selectivity of CDK7 inhibition over CDK9 inhibition [fold] [2]: +++ (IC50>2500 nM) | CDK2 IC50 range class [3]: +++ (IC50>2500 nM)

CC(C)c1cnn2c(N[C@@H](C)c3ccccc3O)nc(O[C@@H]3CCCNC3)nc12 [(VII-ba), 2-((S)-1-((8-isopropyl-2-((R)-piperidin-3-yloxy)pyrazolo[1,5-a][1,3,5]triazin-4-yl)amino)ethyl)phenol]
IC50 [1]: < 10 nM | CDK9: Selectivity of CDK7 inhibition over CDK9 inhibition [fold] [2]: +++ (IC50>2500 nM) | CDK2 IC50 range class [3]: +++ (IC50>2500 nM)

CC(C)COc1cccc([C@H](C)Nc2nc(O[C@@H]3CCCNC3)nc3c(C(C)C)cnn23)c1 [(VII-bb), N-((S)-1-(3-isobutoxyphenyl)ethyl)-8-isopropyl-2-((R)-piperidin-3-yloxy)pyrazolo[1,5-a][1,3,5]triazin-4-amine]
IC50 [1]: 30 to 100 nM | CDK9: Selectivity of CDK7 inhibition over CDK9 inhibition [fold] [2]: +++ (IC50>2500 nM) | CDK2 IC50 range class [3]: +++ (IC50>2500 nM)

CC(C)Oc1cccc([C@H](C)Nc2nc(O[C@@H]3CCCNC3)nc3c(C(C)C)cnn23)c1 [(VII-bc), N-((S)-1-(3-isopropoxy-phenyl)ethyl)-8-isopropyl-2-((R)-piperidin-3-yloxy)pyrazolo[1,5-a][1,3,5]triazin-4-amine]
IC50 [1]: 10 to 30 nM | CDK9: Selectivity of CDK7 inhibition over CDK9 inhibition [fold] [2]: +++ (IC50>2500 nM) | CDK2 IC50 range class [3]: +++ (IC50>2500 nM)

COc1ccc(OC)c([C@H](C)Nc2nc(O[C@@H]3CCCNC3)nc3c(C(C)C)cnn23)c1 [(VII-bd), N-((S)-1-(2,5-dimethoxy-phenyl)ethyl)-8-isopropyl-2-((R)-piperidin-3-yloxy)pyrazolo[1,5-a][1,3,5]triazin-4-amine]
IC50 [1]: > 100 nM | CDK9: Selectivity of CDK7 inhibition over CDK9 inhibition [fold] [2]: +++ (IC50>2500 nM) | CDK2 IC50 range class [3]: +++ (IC50>2500 nM)

CC(C)c1cnn2c(N[C@@H](C)c3ccccc3Br)nc(O[C@@H]3CCCNC3)nc12 [(VII-be), N-((S)-1-(2-bromophenyl)ethyl)-8-isopropyl-2-((R)-piperidin-3-yloxy)pyrazolo[1,5-a][1,3,5]triazin-4-amine]
IC50 [1]: < 10 nM | CDK9: Selectivity of CDK7 inhibition over CDK9 inhibition [fold] [2]: +++ (IC50>2500 nM) | CDK2 IC50 range class [3]: +++ (IC50>2500 nM)

COc1cc(OC)cc(C(C)Nc2nc(O[C@@H]3CCCNC3)nc3c(C(C)C)cnn23)c1 (stereo partly drawn) [(VII-bg), N-(1-(3,5-dimethoxy-phenyl)ethyl)-8-isopropyl-2-((R)-piperidin-3-yloxy)pyrazolo[1,5-a][1,3,5]triazin-4-amine]
IC50 [1]: > 100 nM | CDK9: Selectivity of CDK7 inhibition over CDK9 inhibition [fold] [2]: +++ (IC50>2500 nM) | CDK2 IC50 range class [3]: +++ (IC50>2500 nM)

CC(C)c1cnn2c(NC(C)c3cccc4c3cnn4C)nc(O[C@@H]3CCCNC3)nc12 (stereo partly drawn) [(VII-bh), 8-isopropyl-N-(1-(1-methyl-1H-indazol-4-yl)ethyl)-2-((R)-piperidin-3-yloxy)pyrazolo[1,5-a][1,3,5]triazin-4-amine]
IC50 [1]: < 10 nM | CDK9: Selectivity of CDK7 inhibition over CDK9 inhibition [fold] [2]: +++ (IC50>2500 nM) | CDK2 IC50 range class [3]: +++ (IC50>2500 nM)
